The target in experiment [1] is T1, CaBdf1 BD1 (Candida albicans, UniProt Q5A4W8).
T1 sequence (Q5A4W8 206-315 limits assumed): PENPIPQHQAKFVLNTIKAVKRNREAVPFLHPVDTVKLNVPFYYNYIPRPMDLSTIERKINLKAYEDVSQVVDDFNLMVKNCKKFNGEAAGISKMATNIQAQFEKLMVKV
The experiment in a line: HTRF inhibition assay of BD binding to H4ac4 peptide. An excerpt: (§1) FIG. 7. Homogeneous time-resolved fluorescence (HTRF) assay. a. Assay configuration. A biotinylated tetra-acetylated histone peptide is bound to streptavidin beads which are coupled to a terbium-based donor fluorophore, lumi-Tb cryptate. GST-tagged bromodomain is bound by an anti-GST antibody coupled to the acceptor fluorophore, an organic molecule termed D2. Peptide binding by the bromodomain brings the donor and acceptor within FRET distance. In this situation, excitation of the donor at 337 nm causes energy transfer to the […], whose emitted fluorescence is monitored at 665 nm in a time-resolved manner so as to eliminate transient background fluorescence. b-d.
(§2) A key consideration in establishing fungal BET BD inhibition as a feasible chemotherapeutic strategy is whether these domains can be targeted by small-molecule inhibitors without antagonizing human BET function. To probe the similarity between the ligand binding pockets of C. albicans and human BET BDs, we asked whether human BET inhibitors could inhibit CaBdf1 BDs.
For orientation: TR-FRET usually uses a lanthanide donor and a delayed reading to cut background.

Experiment [2] concerns C. albicans. Description: Growth of C. albicans in vitro (liquid culture growth assay). Format: cell-based. An excerpt:
FIG. 8. CaBdf1 BDs are insensitive to human BET inhibitors. (a) HTRF inhibition assays performed on BD1 and BD2 from CaBdf1 and human Brd4 to evaluate the effects of four human BET inhibitors. Inhibition curves are shown as closed (BD1) and open (BD2) circles in green (Brd4) and magenta (Bdf1). IC50 values are summarized below each graph. (b) Thermal stability of the indicated BET BDs in the presence and absence of BET inhibitors determined by differential scanning fluorimetry. The thermal shift (ΔTm) for each inhibitor is indicated. Curves obtained in the presence (thick lines) or absence (thin lines) are plotted for CaBDF1 BD1 (solid magenta), CaBDF1 BD2 (dashed magenta) and human Brd4 (green). […] Experiments have been performed in the presence of doxycycline, which represses the pTetO-BDF1 allele.
FIG. 13. Identification of a CaBdf1-BD1 inhibitor that phenocopies BD1 inactivation. (a) Chemical structure of dibenzothiazepinone compound MS5. (b) HTRF assay showing that MS5 inhibits CaBdf1-BD1 preferentially over CaBdf1-BD2 and with weak selectivity compared to hBrd4-BD1. (c) ITC experiment showing binding of MS5 towards the indicated BD. (d) Effect of MS5 on the growth of C. albicans. The first allele is indicated below the graph, the second is pMET-BDF1 (top) orpTetO-BDF1 (bottom). Strains were grown in the presence of doxycycline or methionine/cysteine, respectively, to repress expression from the second allele. MS5 compromises growth when CaBdf1-BD2 is inactivated by deletion or point-mutation. Statistical test is a two-sided paired t-test performed on ≥5 biological replicates (*p=0.01 to 0.05; **p=0.001 to 0.01; ***p<0.001). (e) Dose-response experiment showing the effect of MS5 on Bdf1 mutant strains.
We next tested the effect of the identified hit compounds on the growth of C. albicans in vitro. […] We therefore tested compounds that inhibited CaBdf1-BD1 with micromolar IC50 values but which were unselective or only weakly selective for the fungal BD.

The target of experiment [3] is T1, CaBdf1 BD1. Description: Isothermal titration calorimetry (ITC). Type of experiment: binding, C. albicans. (In general: In ITC the heat of successive injections is recorded.)
In experiment [4] the target is T2, CaBdf1 BD2 (Candida albicans, UniProt Q5A4W8).
T2 sequence (Q5A4W8 383-492 limits assumed): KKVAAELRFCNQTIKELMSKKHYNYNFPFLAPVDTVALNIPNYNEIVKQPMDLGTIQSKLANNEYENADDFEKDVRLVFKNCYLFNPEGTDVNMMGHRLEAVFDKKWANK
Description: Isothermal titration calorimetry (ITC). Format: binding, C. albicans.

For experiment [5], the target named is T2, CaBdf1 BD2. Description: HTRF inhibition assay of BD binding to H4ac4 peptide. The following applies: for inhibition of CaBdf1 BD2: HTRF.
Description: as §1, with “b-d. Binding of biotinylated tetra-acetylated H4 (H4ac4) peptide by the BD1 bromodomains from human Brd4 (b), S. cerevisiae Bdf1 (c) and C. albicans Bdf1 (d) as measured by an increase in HTRF signal with increasing peptide concentration.” for “b-d.”
as §2

Experiment [6] deals with Brd4 BD1 (Homo sapiens, UniProt O60885). The experiment in a line: Isothermal titration calorimetry (ITC). Type of experiment: binding.

pIC50, pKd: −log10 of the molar value.

In general, pIC50 refers to the IC50 on a negative log10 scale, so that one unit is a factor of ten. In the case of `COc1cc2c(cc1-c1c(C)noc1C)ncc1[nH]c(=O)n([C@H](C)c3ccccn3)c12` [IBET-151, reference compound], the “reduction in sensitivity relative to Brd4” value in experiment [1] (CaBdf1 BD1 vs corresponding Brd4 BD) turned out to be 60 fold. This compound also gave a pIC50 in experiment [1] (HTRF, strongest inhibition) of about 6.52. In experiment [2] (even when Bdf1 bromodomains are deleted, in the presence of doxycycline (represses pTetO-BDF1 allele)), the “effect on C. albicans growth” value is reported as “do not affect”. The “effect on the growth of C. albicans in vitro” value in experiment [2] is reported as “none of the BET inhibitors had any significant effect”.
For the compound `Cc1sc2c(c1C)C(c1ccc(Cl)cc1)=N[C@@H](CC(=O)OC(C)(C)C)c1nnc(C)n1-2` [JQ1, reference compound], the “binding (ITC)” value in experiment [3] (ITC) and in experiment [4] (ITC) was “no binding was detected” throughout.
`O=C1c2ccccc2Sc2cc(-c3noc(-c4cnccn4)n3)ccc2N1C1CC1` [MS4]: in experiment [5], the “inhibition of CaBdf1 BD2” value is “only modest inhibition”. In addition, the “binding (ITC)” value in experiment [6] is reported as “no significant binding was detected”. Besides, the “effect on the growth of C. albicans in vitro” value in experiment [2] is listed as “little effect”.
In the case of `CN1C(=O)c2ccccc2Sc2cc(NC(=O)C3CCCO3)ccc21` (centres unmarked) [MS5, N-(10-methyl-11-oxo-10,11-dihydrodibenzo[b,f][1,4]thiazepin-7-yl)tetrahydrofuran-2-carboxamide], the “inhibition of CaBdf1 BD2” value in experiment [5] is recorded as “only a weak inhibitory effect”. Further, the Kd / affinity entry in experiment [3] (ITC (MS5: HTRF and ITC assays)) is given as “low micromolar”. Also, in experiment [2] (Candida albicans, read-out: IC50 (growth dose-response curve)), the pIC50 is 4.40. Moreover, the “effect on growth compared to vehicle (DMSO)” value in experiment [2] (liquid culture, strains expressing WT Bdf1 or mutant Bdf1 inactivated in the first BD) was “little effect”. Moreover, the effect on growth entry in experiment [2] (strains inactivated in BD2) is listed as “significantly compromised”.
As for `Cc1ccc(Nc2c(-c3ccc(O)cc3)nc3c(C)cccn23)cc1` [MS51, 4-(8-Methyl-3-(p-tolylamino)imidazo[1,2-a]pyridin-2-yl)phenol], the “selectivity relative to BD1 of either CaBdf1 or human Brd4” value in experiment [5] is listed as “high selectivity”. Further, the pKd in experiment [4] (HTRF and ITC assays, read-out: affinity) was 5.70 to 6.00.
Compound `CCOC(=O)Nc1cc(-c2ccc(C)c(NS(C)(=O)=O)c2)nn2c(C)nnc12` [bromosporine, reference compound] showed a negative-log IC50 (pIC50) in experiment [5] of about 6.52.

Source of the values: patent publication US10918647B2, “Selective bromodomain inhibition of fungal Bdf1” (University of Southern California, priority 2016, dated 2021).
